Test results reported in US7741347B2, “Hepatitis C virus inhibitors” (Bristol-Myers Squibb Company, priority 2007, dated 2010).

System: HCV 1b-377-neo replicon cells
Assay: HCV replicon assay, wild-type cells
Format: cell-based
Conditions: Hepatitis C virus, read-out: EC50 against the HCV 1b genotype (Activity)
Procedure: An HCV Replion assay was utilized in the present disclosure, and was prepared, conducted and validated as described in commonly owned PCT/US2006/022197 and in O'Boyle et. al. Antimicrob Agents Chemother. 2005 April; 49(4): 1346-53.
HCV 1b-377-neo replicon cells were used to test representative compounds described within this disclosure as were cells resistant to compound A due to a Y2065H mutation in NS5A (described in application PCT/US2006/022197). The compounds tested were determined to have an approximately 10-fold less inhibitory activity on cells resistant to compound A than wild-type cells indicating a related mechanism of action between the two compound series. Thus, the compounds can be effective to be effective to inhibit the function of the HCV NS5A protein and are understood to be as effective in combinations as previously described in application PCT/US2006/022197 and commonly owned WO/04014852. Further, the compounds are effective against the HCV 1b genotype. It should also be understood that the compounds of the present disclosure can inhibit multiple genotypes of HCV. […] Ranges are as follows: A=1-10 μM; B=100-999 nM; C=1-99 nM; and D=10-999 pM.

SMILES | EC50 [nM]
COC(=O)N[C@@H](C(=O)N1CCC[C@H]1c1cc(-c2ccc(-c3ccc(-c4cnc([C@@H]5CCCN5C(=O)[C@H](NC(=O)OC)c5ccccc5)[nH]4)cc3)cc2)n[nH]1)c1ccccc1 [Example 31] | 0.01 to 0.999
CN(C)[C@@H](C(=O)N1CCC[C@H]1c1cc(-c2ccc(-c3ccc(-c4cnc([C@@H]5CCCN5C(=O)[C@@H](c5ccccc5)N(C)C)[nH]4)cc3)cc2)n[nH]1)c1ccccc1 [Example 32] | 0.01 to 0.999
COC(=O)N[C@@H](C(=O)N1CCC[C@H]1c1ncc(-c2ccc(-c3ccc(-c4nnc([C@@H]5CCCN5C(=O)[C@H](NC(=O)OC)c5ccccc5)[nH]4)cc3)cc2)[nH]1)c1ccccc1 [Example 33] | 0.01 to 0.999
COC(=O)N[C@@H](C(=O)N1CCC[C@H]1c1nnc(-c2ccc(-c3ccc(-c4nnc([C@@H]5CCCN5C(=O)[C@H](NC(=O)OC)c5ccccc5)[nH]4)cc3)cc2)[nH]1)c1ccccc1 [Example 34] | 0.01 to 0.999
CN(C)[C@@H](C(=O)N1CCC[C@H]1c1nnc(-c2ccc(-c3ccc(-c4nnc([C@@H]5CCCN5C(=O)[C@@H](c5ccccc5)N(C)C)[nH]4)cc3)cc2)[nH]1)c1ccccc1 [Example 35] | 1 to 99
COC(=O)N[C@H](C(=O)N1CCC[C@H]1c1cnc(-c2ccc(-c3ccc(-c4cnc([C@@H]5CCCN5C(=O)[C@@H](NC(=O)OC)[C@@H](C)OC)o4)cc3)cc2)[nH]1)[C@@H](C)OC [Example 38] | 0.01 to 0.999

Same assay, conditions: read-out: EC50 against the HCV 1b genotype (Activity)

SMILES | EC50 [nM]
COC(=O)NC(C(=O)N1CCCC1c1cc(-c2ccc(-c3ccc(-c4cc(C5CCCN5C(=O)C(NC(=O)OC)c5ccccc5)n[nH]4)cc3)cc2)[nH]n1)c1ccccc1 [Example 30, Dimethyl-(1R,1′R)-2,2′-((2S,2′S)-2,2′-(5,5′-(biphenyl-4,4′-diyl)bis(1H-pyrazole-5,3-diyl))bis(pyrrolidine-2,1-diyl))bis(2-oxo-1-phenylethane-2,1-diyl)dicarbamate] | 1 to 99
